Data taken from patent publication US12552800B2, “Compounds for diagnosis” (AC IMMUNE SA, priority 2020, dated 2026).

What was measured:
[1] = biological target: T1, PD brain-derived a-syn aggregates (Homo sapiens, UniProt P37840); test: Micro-radiobinding competition assay against Example-1 [^3H-1] (Table 8); type: binding; details: for Competition at 100 nM (%): 100 nM non-radiolabelled example compound vs Example-1 [^3H-1] ligand; for Competition at 100 nM (%) / Competition at 1 μM (%): human PD brain-derived a-syn aggregates; for Competition at 1 μM (%): 1 μM non-radiolabelled example compound vs Example-1 [^3H-1] ligand
T1 construct: from tissue; host or cells: human PD donor brain, sarkosyl-insoluble 100,000 x g pellet
Experimental: PD brain-derived a-syn aggregates were spotted onto microarray slides. The slides were incubated with the Example-1 [^3H-1] at 6 nM or 20 nM and the example compounds (non-radiolabelled) at 1 μM and 100 nM. In some cases, the non-radiolabelled example compounds were further assessed for a range of different concentrations, varying from 0.05 nM to 2 μM. After incubation, slides were washed and scanned by a real-time autoradiography system (BeaQuant, ai4R). Quantification of the signal was performed by using the Beamage image analysis software (ai4R). […] All measurements were performed with at least two technical replicates. For compounds tested in more than one experiment, the mean of the replicates or K; values in independent experiments is reported.
Results: Example compounds were assessed for their potency to compete with the binding of Example-1 [^3H-1] ligand to PD patient brain-derived a-syn aggregates. Results of the micro-radiobinding competition assay for the example compounds tested are shown in Table 8 as: % competition at 1 μM and 100 nM.

[2] = biological target: T1, PD brain-derived a-syn aggregates; test: as above; type: binding; details: competition over Example-1 [^3H-1]

SMILES | Competition at 100 nM (%) [1] | Competition at 1 μM (%) [1] | Ki [2] | Ki ([1]; mean of Ki values in independent experiments using PD brain-derived homogenates from two different donors)
O=C1c2cn(-c3ccc(N4CC[C@H](F)C4)nc3)nc2CN1c1ncccc1O [Example 169] | 73% | 96% | 45 nM | –
O=C1c2cn(-c3ccc(N4CC[C@H](F)C4)nc3)nc2CN1c1ccncc1 [Example 54] | 71% | 88% | 19 nM | –
O=C1c2cn(-c3ccc(N4CCCC4)nc3)nc2CN1c1cncc(F)n1 [Example 139] | 58% | 77% | 7 nM | –
O=C1c2cn(-c3ccc(N4CC[C@H](F)C4)nc3)nc2CN1c1ccccn1 [Example 6] | 87% | 98% | 19 nM | –
O=C1c2cn(-c3ccc(N4CC(F)C4)nc3)nc2CN1c1cccnc1 [Example 48] | 42% | 77% | 132 nM | –
Cl.O=C1c2cn(-c3ccc(N4CC[C@H](F)C4)nc3)nc2CN1c1cnccn1 [Example 17] | 68% | 100% | 21 nM | –
O=C1c2cn(-c3ccc(N4CC[C@@H](F)C4)nc3)nc2CN1c1ccnnc1 [Example 25] | 64% | 94% | 68 nM | –
Cn1cc(N2Cc3nn(-c4ccc(N5CC[C@@H](F)C5)nc4)cc3C2=O)cn1 [Example 26] | 87% | 108% | 20 nM | –
O=C1c2cn(-c3ccc(N4CCC[C@@H](F)C4)nc3)nc2CN1c1cccnc1 [Example 40] | 50% | 77% | 49 nM | –
N#Cc1cc(N2Cc3nn(-c4ccc(N5CC[C@@H](F)C5)nc4)cc3C2=O)ccc1N [Example 23] | – | 81% | – | –
Cn1cc(N2Cc3nn(-c4ccc(N5CCC[C@H](F)C5)nc4)cc3C2=O)cn1 [Example 121] | 40% | 84% | – | –
O=C1c2cn(-c3ccc(N4CC[C@H](F)C4)nc3)nc2CN1c1ccccc1F [Example 71] | 18% | 51% | – | –
N#Cc1ccc(N2Cc3nn(-c4ccc(N5CC[C@H](F)C5)nc4)cc3C2=O)nc1 [Example 31] | 86% | – | – | –
O=C1c2cn(-c3ccc(N4CC[C@@H](F)C4)nc3)nc2CN1c1ccns1 [Example 125] | 80% | 99% | – | –
O=C1c2cn(-c3ccc(N4CCCC4)nc3)nc2CN1c1ccc(F)cn1 [Example 115] | 92% | 98% | – | –
COc1cccc(N2Cc3nn(-c4ccc(N5CC[C@H](F)C5)nc4)cc3C2=O)c1 [Example 36] | 74% | 91% | – | –
Cc1c2c(nn1-c1ccc(N3CC[C@@H](F)C3)nc1)CN(c1ccncc1)C2=O [Example 94] | 18% | 70% | – | –
N#Cc1cc(N2Cc3nn(-c4ccc(N5CC[C@H](F)C5)nc4)cc3C2=O)ccc1N [Example 22] | – | 72% | – | –
O=C1c2cn(-c3ccc(N4CC[C@H](F)C4)nc3)nc2CN1c1ccccc1 [Example 20] | 48% | 90% | – | –
CC(C)c1ccc(-n2cc3c(n2)CN(c2cccc(F)n2)C3=O)cn1 [Example 157] | 21% | 43% | – | –
N#Cc1cccc(N2Cc3nn(-c4ccc(N5CC[C@H](F)C5)nc4)cc3C2=O)c1 [Example 65] | 64% | – | – | –
CC(C)Oc1ccc(-n2cc3c(n2)CN(c2cncc(F)n2)C3=O)cn1 [Example 158] | 19% | 54% | – | –
COc1ccc(N2Cc3nn(-c4ccc(N5CC[C@H](F)C5)nc4)cc3C2=O)cn1 [Example 9] | 69% | 90% | – | –
Cc1ccccc1N1Cc2nn(-c3ccc(N4CC[C@H](F)C4)nc3)cc2C1=O [Example 32] | 16% | 25% | – | –

SMILES | Competition at 100 nM (%) [1] | Competition at 1 μM (%) [1] | Ki [2] | Ki ([1]; mean of Ki values in independent experiments using PD brain-derived homogenates from two different donors)
Cc1cccc(N2Cc3nn(-c4ccc(N5CC[C@@H](F)C5)nc4)cc3C2=O)c1 [Example 61] | 53% | 80% | – | –
O=C1c2cn(-c3ccc(N4CC[C@H](F)C4)nc3)nc2CN1c1ccc(O)cn1 [Example 165] | 88% | 107% | – | –
N#Cc1cccc(N2Cc3nn(-c4ccc(N5CC[C@H](F)C5)nc4)cc3C2=O)n1 [Example 84] | 14% | 38% | – | –
N#Cc1ccc(N2Cc3nn(-c4ccc(N5CCCC5)nc4)cc3C2=O)cc1F [Example 55] | 11% | 38% | – | –
O=C1c2cn(-c3ccc(N4CC[C@@H](F)C4)nc3)nc2CN1c1ccnc(O)c1 [Example 171] | 48% | – | – | –
N#Cc1ccc(N2Cc3nn(-c4ccc(N5CC[C@@H](F)C5)nc4)cc3C2=O)cc1 [Example 56] | 93% | – | – | –
O=C1c2cn(-c3ccc(N4CC[C@@H](F)C4)nc3)nc2CN1c1ccc(O)cn1 [Example 162] | 92% | 110% | – | –
Cn1cc(N2Cc3nn(-c4ccc(N5CCC[C@@H](F)C5)nc4)cc3C2=O)cn1 [Example 120] | 45% | 83% | – | –
N#Cc1ccc(-n2cc3c(n2)CN(c2cncc(F)n2)C3=O)cn1 [Example 155] | 51% | 94% | – | –
Cl.O=C1c2cn(-c3ccc(N4CCCC4)nc3)nc2CN1c1ccc(F)nc1 [Example 49] | 48% | 84% | – | –
O=C1c2cn(-c3ccc(N4CC[C@H](F)C4)nc3)nc2CN1c1ccns1 [Example 127] | 71% | 86% | – | –
Cc1ccc(N2Cc3nn(-c4ccc(N5CC[C@@H](F)C5)nc4)cc3C2=O)nc1 [Example 110] | 75% | 105% | – | –
O=C1c2cn(-c3ccc(N4CCOCC4)nc3)nc2CN1c1nccnc1F [Example 45] | 78% | 92% | – | 52 nM
O=C1c2cn(-c3ccc(N4CC[C@@H](F)C4)nc3)nc2CN1c1ncccn1 [Example 15] | 61% | 91% | – | –
O=C1c2cn(-c3ccc(N4CC[C@@H](F)C4)nc3)nc2CN1c1cccnn1 [Example 152] | 39% | 86% | – | –
COc1ccc(N2Cc3nn(-c4ccc(N5CC[C@H](F)C5)nc4)cc3C2=O)nc1 [Example 28] | 89% | 99% | – | –
N#Cc1ccc(N2Cc3nn(-c4ccc(N5CC[C@H](F)C5)nc4)cc3C2=O)cn1 [Example 29] | 91% | – | – | –
Cn1cc(-n2cc3c(n2)CN(c2cncc(F)n2)C3=O)cn1 [Example 149] | – | 53% | – | –
CN(C)c1ccc(-n2cc3c(n2)CN(c2cccnc2)C3=O)cn1 [Example 135] | 67% | 96% | – | –
Cc1cnccc1N1Cc2nn(-c3ccc(N4CC[C@@H](F)C4)nc3)cc2C1=O [Example 122] | 34% | 61% | – | –
O=C1c2cn(-c3ccc(N4CC[C@@H](F)C4)cc3)nc2CN1c1cccnc1 [Example 85] | 72% | 99% | – | –
Cn1cc(N2Cc3nn(-c4ccc(N5CC(F)C5)nc4)cc3C2=O)cn1 [Example 124] | 61% | 98% | – | –
Cc1cccc(N2Cc3nn(-c4ccc(N5CC[C@@H](F)C5)nc4)cc3C2=O)n1 [Example 75] | 58% | 73% | – | –
COc1cc(N2Cc3nn(-c4ccc(N5CC[C@H](F)C5)nc4)cc3C2=O)ccn1 [Example 106] | 95% | 100% | – | –
